One assay has as its system HCV replicon genotype 1b. As to the kind of experiment: microbe, parasite or virus in culture. The assay is classed as cell-based. Conditions: genotype 1b replicon cells, incubated 96 hours, NS3/4A ELISA readout. For orientation: A replicon is a self-replicating genome or part of one, used to study replication in cells.
In the next assay the test system is HCV replicon genotype 1a. In words: microbe, parasite or virus in culture. The assay is classed as cell-based. Conditions: genotype 1a replicon cells, incubated 96 hours, NS3/4A ELISA readout.

By IC50 is commonly meant the midpoint of a concentration-inhibition curve. Low readings indicate higher potency, high ones lower potency.

Regarding `CNC(=O)c1c(-c2ccc(F)cc2)oc2cc(N(CCCF)S(C)(=O)=O)c(-c3ncc4c(n3)-c3cc5ccccc5n3CO4)cc12` [Compound 197], the IC50 in the assay with HCV replicon genotype 1b (Hepatitis C virus, 96 h) is 4.4 nM; with HCV replicon genotype 1a (Hepatitis C virus, 96 h), 2.6 nM.

With `CNC(=O)c1c(-c2ccc(F)cc2)oc2cc(N(C)S(C)(=O)=O)c(-c3ccc4c(n3)-c3cc5c(F)c(F)ccc5n3CO4)cc12` [Compound 28], the IC50 is 4.5 nM in the assay with HCV replicon genotype 1b (Hepatitis C virus, 96 h) and 2.1 nM in the assay with HCV replicon genotype 1a (Hepatitis C virus, 96 h).

Consider `CNC(=O)c1c(-c2ccc(F)cc2)oc2cc(N(CCCF)S(C)(=O)=O)c(-c3ccc4c(n3)-c3cc5ccccc5n3CO4)cc12` [Compound 187], for which the concentration for half-maximal inhibition (IC50) amounted to 9.4 nM in the assay on HCV replicon genotype 1b (Hepatitis C virus, 96 h) and 7.5 nM with HCV replicon genotype 1a (Hepatitis C virus, 96 h).

On to `CNC(=O)c1c(-c2ccc(F)cc2)oc2cc(N(C)S(C)(=O)=O)c(-c3ccc4c(c3)-c3cc5ccccc5n3CC(NCCN(C)C)CO4)cc12` (stereo not drawn) [Compound 80, 5-(7-((2-(dimethylamino)ethyl)amino)-7,8-dihydro-6H-benzo[2,3][1,5]oxazocino[5,4-a]indol-2-yl)-2-(4-fluorophenyl)-N-methyl-6-(N-methylmethylsulfonamido)benzofuran-3-carboxamide], for which the IC50 with HCV replicon genotype 1b (Hepatitis C virus, 96 h) came to 15 nM; in the assay on HCV replicon genotype 1a (Hepatitis C virus, 96 h), 18 nM.

Consider `CC(=O)N(C)C(=O)c1c(-c2ccc(F)cc2)oc2cc(N(C)S(C)(=O)=O)c(-c3ccc4c(n3)-c3cc5c(F)cccc5n3CO4)cc12` [Compound 210, N-acetyl-5-(11-fluoro-6H-pyrido[2′,3′:5,6][1,3]oxazino[3,4-a]indol-2-yl)-2-(4-fluorophenyl)-N-methyl-6-(N-methylmethylsulfonamido)benzofuran-3-carboxamide], for which the half-inhibitory concentration (IC50) in the assay with HCV replicon genotype 1b (Hepatitis C virus, 96 h) turned out to be 4.2 nM; in the assay with HCV replicon genotype 1a (Hepatitis C virus, 96 h) it was 2.1 nM.

For `CNC(=O)c1c(-c2ccc(F)cc2)oc2cc(N(C)S(C)(=O)=O)c(-c3ccc4c(n3)-c3cc5cccnc5n3CO4)cc12` [Compound 48, 2-(4-fluorophenyl)-N-methyl-6-(N-methylmethylsulfonamido)-5-(6H-pyrido[2,3-e]pyrido[3′,2′:4,5]pyrrolo[1,2-c][1,3]oxazin-2-yl)benzofuran-3-carboxamide], the IC50 came to 2.6 nM in the assay with HCV replicon genotype 1b (Hepatitis C virus, 96 h) and 2.2 nM in the assay on HCV replicon genotype 1a (Hepatitis C virus, 96 h).

For the compound `CCOC(=O)C1Oc2ccc(-c3cc4c(C(=O)NC)c(-c5ccc(F)cc5)oc4cc3N(C)S(C)(=O)=O)nc2-c2cc3c(F)cccc3n21` (stereo not drawn) [Compound 113], the IC50 in the assay on HCV replicon genotype 1b (Hepatitis C virus, 96 h) is 29 nM; in the assay with HCV replicon genotype 1a (Hepatitis C virus, 96 h) it was 32 nM.

`CNC(=O)c1c(-c2ccc(F)cc2)oc2cc(N(C)S(C)(=O)=O)c(-c3ccc4c(n3)-c3cc5c(F)cncc5n3CO4)cc12` [Compound 46, 5-(11-fluoro-6H-pyrido[2,3-e]pyrido[4′,3′:4,5]pyrrolo[1,2-c][1,3]oxazin-2-yl)-2-(4-fluorophenyl)-N-methyl-6-(N-methylmethylsulfonamido)benzofuran-3-carboxamide]: the IC50 turned out to be 2.1 nM with HCV replicon genotype 1b (Hepatitis C virus, 96 h) and 1.5 nM with HCV replicon genotype 1a (Hepatitis C virus, 96 h).

`CNC(=O)c1c(-c2ccc(F)cc2)oc2cc(N(C)S(C)(=O)=O)c(-c3ccc4c(n3)-c3cc5c(F)cccc5n3C(CN3CCOCC3)O4)cc12` (stereo not drawn) [Compound 123, 5-(11-fluoro-6-(morpholinomethyl)-6H-pyrido[2′,3′:5,6][1,3]oxazino[3,4-a]indol-2-yl)-2-(4-fluorophenyl)-N-methyl-6-(N-methylmethylsulfonamido)benzofuran-3-carboxamide]: the IC50 in the assay with HCV replicon genotype 1b (Hepatitis C virus, 96 h) came to 3.6 nM; with HCV replicon genotype 1a (Hepatitis C virus, 96 h), 3.4 nM.

In the case of `CNC(=O)c1c(-c2ccc(F)cc2)oc2cc(N(C)S(C)(=O)=O)c(-c3ccc4c(n3)-c3c(C#N)c5ccccc5n3CO4)cc12` [Compound 60, 5-(12-cyano-6H-pyrido[2′,3′:5,6][1,3]oxazino[3,4-a]indol-2-yl)-2-(4-fluorophenyl)-N-methyl-6-(N-methylmethylsulfonamido)benzofuran-3-carboxamide], the half-maximal inhibitory concentration (IC50) in the assay on HCV replicon genotype 1b (Hepatitis C virus, 96 h) turned out to be 31 nM; in the assay on HCV replicon genotype 1a (Hepatitis C virus, 96 h), 69 nM.

For the compound `CNC(=O)c1c(-c2ccc(F)cc2)oc2cc(N(C)S(C)(=O)=O)c(-c3ccc4c(n3)-c3nn5ccccc5c3CO4)cc12` [Compound 146, 2-(4-fluorophenyl)-N-methyl-5-(1-aza-6H-chromeno[4′,3′:3,4]pyrazolo[1,5-a]pyridin-2-yl)-6-(N-methylmethylsulfonamido)benzofuran-3-carboxamide], the IC50 with HCV replicon genotype 1b (Hepatitis C virus, 96 h) amounted to 37 nM; in the assay with HCV replicon genotype 1a (Hepatitis C virus, 96 h), 225 nM.

Consider `CNC(=O)c1c(-c2ccc(F)cc2)oc2cc(N(C)S(C)(=O)=O)c(-c3ccc4c(n3)-c3cc5c(CN(C)C)cccc5n3CO4)cc12` [Compound 70], for which the IC50 came to 18 nM in the assay with HCV replicon genotype 1b (Hepatitis C virus, 96 h) and 71 nM in the assay on HCV replicon genotype 1a (Hepatitis C virus, 96 h).

For the compound `CNC(=O)c1c(-c2ccc(F)cc2)oc2cc(N(C)S(C)(=O)=O)c(-c3ccc4c(n3)-c3cc5c(F)cccc5n3[C@H](COC(=O)[C@@H](N)C(C)C)O4)cc12` [Compound 102, (S)—((S)-11-fluoro-2-(2-(4-fluorophenyl)-3-(methylcarbamoyl)-6-(N-methylmethylsulfonamido)benzofuran-5-yl)-6H-pyrido[2′,3′:5,6][1,3]oxazino[3,4-a]indol-6-yl)methyl 2-amino-3-methylbutanoate], the IC50 is 4.3 nM with HCV replicon genotype 1b (Hepatitis C virus, 96 h) and 3.9 nM with HCV replicon genotype 1a (Hepatitis C virus, 96 h).

As to `CNC(=O)c1c(-c2ccc(F)cc2)oc2cc(N(C)S(C)(=O)=O)c(-c3ccc4c(c3)-c3cc5ccccc5n3CC(NCCN3CCOCC3)CO4)cc12` (stereo not drawn) [Compound 83], the IC50 is 12 nM in the assay with HCV replicon genotype 1b (Hepatitis C virus, 96 h) and 15 nM in the assay with HCV replicon genotype 1a (Hepatitis C virus, 96 h).

In the case of `CNC(=O)c1c(-c2ccc(F)cc2)oc2cc(CN)c(-c3ccc4c(n3)-c3cc5c(F)cccc5n3CO4)cc12` [Compound 181], the 50% inhibitory concentration (IC50) amounted to 14 nM in the assay with HCV replicon genotype 1b (Hepatitis C virus, 96 h) and 13 nM in the assay on HCV replicon genotype 1a (Hepatitis C virus, 96 h).

On to `CNC(=O)c1c(-c2ccc(F)cc2)oc2cc(N(C)S(C)(=O)=O)c(-c3ccc4c(c3)-c3cc5ccccc5n3CC(NC3CCN(C)CC3)CO4)cc12` (stereo not drawn) [Compound 82], for which the IC50 with HCV replicon genotype 1b (Hepatitis C virus, 96 h) worked out at 11 nM; with HCV replicon genotype 1a (Hepatitis C virus, 96 h), 15 nM.

In the case of `CNC(=O)c1c(-c2ccc(F)cc2)oc2cc(N(C)S(C)(=O)=O)c(-c3ccc4c(c3)-c3[nH]c5ccccc5c3C(c3cccnc3)O4)cc12` (stereo not drawn) [Compound 62], the IC50 in the assay on HCV replicon genotype 1b (Hepatitis C virus, 96 h) came to 3.4 nM; with HCV replicon genotype 1a (Hepatitis C virus, 96 h) it was 12 nM.

As to `CNC(=O)c1c(-c2ccc(F)cc2)oc2cc(N(C)S(C)(=O)=O)c(-c3ccc4c(n3)-c3cc5c(CN)cccc5n3CO4)cc12` [Compound 68], the IC50 in the assay on HCV replicon genotype 1b (Hepatitis C virus, 96 h) turned out to be 19 nM; with HCV replicon genotype 1a (Hepatitis C virus, 96 h), 60 nM.

For `CNC(=O)c1c(-c2ccc(F)cc2)oc2cc(N(C)S(C)(=O)=O)c(-c3ccc4c(n3)-c3cc5c(F)cccc5n3C(CCO)O4)cc12` (stereo not drawn) [Compound 99, 5-(11-fluoro-6-(2-hydroxyethyl)-6H-pyrido[2′,3′:5,6][1,3]oxazino[3,4-a]indol-2-yl)-2-(4-fluorophenyl)-N-methyl-6-(N-methylmethylsulfonamido)benzofuran-3-carboxamide], the IC50 was 4.6 nM in the assay with HCV replicon genotype 1b (Hepatitis C virus, 96 h) and 1.9 nM with HCV replicon genotype 1a (Hepatitis C virus, 96 h).

For the compound `CNC(=O)c1c(-c2ccc(F)cc2)oc2cc(C(N)=O)c(-c3ccc4c(n3)-c3cc5c(F)cccc5n3CO4)cc12` [Compound 183, 5-(11-fluoro-6H-pyrido[2′,3′:5,6][1,3]oxazino[3,4-a]indol-2-yl)-2-(4-fluorophenyl)-N3-methylbenzofuran-3,6-dicarboxamide], the IC50 stood at 7.1 nM with HCV replicon genotype 1b (Hepatitis C virus, 96 h) and 2 nM in the assay with HCV replicon genotype 1a (Hepatitis C virus, 96 h).

On to `CNC(=O)c1c(-c2ccc(F)cc2)oc2cc(N(C)S(C)(=O)=O)c(-c3ccc4c(n3)-c3cc5c(Cl)cccc5n3CO4)cc12` [Compound 14], for which the IC50 with HCV replicon genotype 1b (Hepatitis C virus, 96 h) amounted to 6.2 nM; with HCV replicon genotype 1a (Hepatitis C virus, 96 h), 3 nM.

For the compound `CNC(=O)c1c(-c2ccc(F)cc2)oc2cc(N(C)S(C)(=O)=O)c(-c3nc4c(cc3OC)OCn3c-4cc4c(F)cccc43)cc12` [Compound 36], the IC50 was 7.1 nM with HCV replicon genotype 1b (Hepatitis C virus, 96 h) and 1.7 nM with HCV replicon genotype 1a (Hepatitis C virus, 96 h).

With `CNC(=O)c1c(-c2ccc(F)cc2)oc2cc(N(C)S(C)(=O)=O)c(-c3ccc4c(n3)-c3cc5c(F)cccc5n3C(CNC(=O)[C@@H](NC(=O)OC)C(C)C)O4)cc12` (stereo partly drawn) [Compound 125], the half-maximal inhibitory concentration (IC50) in the assay with HCV replicon genotype 1b amounted to 3.4 nM; with HCV replicon genotype 1a (Hepatitis C virus, 96 h) it was 5.1 nM.

Turning to `CNC(=O)c1c(-c2ccc(F)cc2)oc2cc(N(C)S(C)(=O)=O)c(-c3ncc4c(n3)-c3cc5ccccc5n3C(C)O4)cc12` (stereo not drawn) [Compound 9], the IC50 stood at 1.9 nM in the assay on HCV replicon genotype 1b (Hepatitis C virus, 96 h) and 1.1 nM with HCV replicon genotype 1a (Hepatitis C virus, 96 h).

`CNC(=O)c1c(-c2ccc(F)cc2)oc2cc(N(C)S(C)(=O)=O)c(-c3ccc4c(n3)-c3cc5c(F)cccc5n3C(CN)O4)cc12` (stereo not drawn) [Compound 114, 5-(6-(aminomethyl)-11-fluoro-6H-pyrido[2′,3′:5,6][1,3]oxazino[3,4-a]indol-2-yl)-2-(4-fluorophenyl)-N-methyl-6-(N-methylmethylsulfonamido)benzofuran-3-carboxamide]: the IC50 in the assay on HCV replicon genotype 1b (Hepatitis C virus, 96 h) turned out to be 18 nM; in the assay on HCV replicon genotype 1a (Hepatitis C virus, 96 h), 7.3 nM.

As for `CNC(=O)c1c(-c2ccc(F)cc2)oc2cc(N(C)S(C)(=O)=O)c(-c3ccc4c(n3)-c3cc5c(F)cccc5n3C(C)O4)cc12` (stereo not drawn) [Compound 38], the IC50 was determined as 5.8 nM with HCV replicon genotype 1b and 3.2 nM in the assay on HCV replicon genotype 1a.

For `CNC(=O)c1c(-c2ccc(F)cc2)oc2cc(N(C)S(C)(=O)=O)c(-c3ccc4c(n3)-c3nc5cccnc5n3CO4)cc12` [Compound 137], the IC50 in the assay on HCV replicon genotype 1b (Hepatitis C virus, 96 h) is 7.9 nM; with HCV replicon genotype 1a (Hepatitis C virus, 96 h) it was 44 nM.

Consider `CNC(=O)c1c(-c2ccc(F)cc2)oc2cc(N(C)S(C)(=O)=O)c(-c3ccc4c(c3)-c3cc5ccccc5n3CC(O)CO4)cc12` (stereo not drawn) [Compound 75, 2-(4-fluorophenyl)-5-(7-hydroxy-7,8-dihydro-6H-benzo[2,3][1,5]oxazocino[5,4-a]indol-2-yl)-N-methyl-6-(N-methylmethylsulfonamido)benzofuran-3-carboxamide], for which the IC50 with HCV replicon genotype 1b (Hepatitis C virus, 96 h) was 2.6 nM; in the assay on HCV replicon genotype 1a (Hepatitis C virus, 96 h), 2.8 nM.

As to `CNC(=O)c1c(-c2ccc(F)cc2)oc2cc(N(C)S(C)(=O)=O)c(-c3ccc4c(c3)-c3cc5ccccc5n3CC(F)(F)CO4)cc12` [Compound 77, 5-(7,7-difluoro-7,8-dihydro-6H-benzo[2,3][1,5]oxazocino[5,4-a]indol-2-yl)-2-(4-fluorophenyl)-N-methyl-6-(N-methylmethylsulfonamido)benzofuran-3-carboxamide], the IC50 turned out to be 11 nM in the assay on HCV replicon genotype 1b (Hepatitis C virus, 96 h) and 10 nM in the assay on HCV replicon genotype 1a (Hepatitis C virus, 96 h).

With `CNC(=O)c1c(-c2ccc(F)cc2)oc2cc(N(C)S(C)(=O)=O)c(-c3ncc4c(n3)-c3cc5c(F)cccc5n3CCCO4)cc12` [Compound 40], the IC50 in the assay with HCV replicon genotype 1b (Hepatitis C virus, 96 h) stood at 2.2 nM; in the assay with HCV replicon genotype 1a (Hepatitis C virus, 96 h), 2 nM.
